{
  "source": "paper PMC10819521",
  "about": "(Pharmaceutics, 2024)",
  "tested_on": "voltage-gated calcium channels",
  "test": "Calcium channel blockade (FLIPR Calcium 6 indicator, SH-SY5Y cells)",
  "type": "cell-based, human",
  "details": "compounds at 10 µM, KCl/CaCl2 stimulation, n.i. = no inhibition",
  "protocol": "Calcium channel blockade. Evaluation of the calcium channel blockade of compounds 4a–l was performed using the FLIPR Calcium 6 indicator according to a previously established protocol. Briefly, human neuroblastoma cell line SH-SY5Y seeded out on 96-well plate were treated with fluorescent calcium indicator (FLIPR Calcium 6, Molecular Devices). Cells were incubated with indicator for 2 h at 37 °C, facilitating internalization of the indicator. Subsequently, cells were exposed to nimodipine (10 µM, used as reference inhibitor), DMSO (0.1%, used as vehicle control) or our compounds of interest (10 µM) for 10 min also at 37 °C. Following that, cell fluorescence was recorded using a microplate reader (λEx = 485 nm; λEm = 525 nm). Baseline fluorescence was recorded for 5 s. Afterwards, cells were stimulated by the addition of the solution of KCl and CaCl2 (90 and 5 mM, respectively) in order to induce the opening of voltage-gated calcium channels. An increase in fluorescence of calcium indicator after inducing calcium flux was recorded for another 30 s. Data were collected from three independent experiments, with eight technical replicates per experiment. Fluorescence intensity values were normalized to the baseline recorded before the induction of calcium flux. The percentage of inhibition was calculated as a reduction of normalized calcium flux in comparison with the DMSO vehicle control. Outliers were detected using the Grubbs test, and any outlying values were excluded from further analysis.\nCalcium channel blockade. The Ca^2+ channel blocking capacity of compounds 4a–l and nimodipine, used as a standard at a concentration of 10 μM, was evaluated according to an established methodology.",
  "data": [
    {"smiles": "COCCOC(=O)C1=C(C)NC(C)=C(C(=O)OC(C)C)C1c1cccc([N+](=O)[O-])c1", "note": "(stereo not shown) [nimodipine, reference compound]", "values": [
      {"measurement": "Calcium Channel Blockade (%)", "value": 37, "unit": "%"}
    ]}
  ]
}
